Series [1] deals with patients with osteoarthritis. The conditions noted are these: dosages 5, 15, 35 and 50 mg; cited from earlier work.
In series [2] the test system is patients with acute painful knee osteoarthritis (OA). Nature of the series: Telephone interview on resumption of analgesic drugs and/or NSAIDs. It is filed as in vivo. The conditions noted are these: two months after the last clinical evaluation; 4 patients out of 31. How it is done: (§1) After enrolment, patients were randomized to receive placebo or sodium neridronate (Abiogen, Pisa, Italy) 100 mg/8 ml in vials with an identical appearance in a 1:1 ratio. Both sodium neridronate and placebo were diluted in 500 ml of saline isotonic solution and infused in the morning for over 2 hours. The treatment was administered every third day four times starting from day 1 (first infusion) and ending on day 10 (fourth infusion). Throughout the infusion course, serum calcium was assayed before each infusion. The values were adjusted for albumin value of 4.2 g/dL. After 60 days (57-66) from the first infusion, the last clinical assessment was performed. Two months after the end of the study, patients were interviewed by telephone about a possible relapse of pain and the possible resumption of analgesic drugs and/or NSAIDs.

Series [3] has the same test system. The series can be described thus: Pain in the affected knee by VAS (0-100), randomized double-blind placebo-controlled study. The format is in vivo. The conditions noted are these: mean ± SD.
Excerpt: (§2) The aim of this randomized, double-blind, placebo-controlled study was to assess the efficacy of intravenous neridronate in controlling pain in patients with acute painful knee osteoarthritis (OA).
(§3) From March 2013 to January 2014, 96 patients older than 50 years and with a recent onset of knee pain were screened. These patients came from the orthopedic and rheumatologic outpatients services and the emergency department of a tertiary care center devoted to bone and joint diseases. Sixty-eight patients were considered eligible to be recruited when they met the following inclusion criteria: 1) knee OA fulfilling the American College of Rheumatology diagnostic criteria; 2) a radiographic Kellgren-Lawrence grading score ≥2 in the tibiofemoral joint; 3) a continuous knee pain by at least 2 weeks with an onset no longer than three months; 4) a pain intensity greater than 30 mm on a Huskisson's visual analog scale ranging from 0 (no pain) to 100 mm (maximal pain); 5) a knee MR scan showing large (>1 cm according to international criteria) BMLs. […] At the time of recruitment, 58 patients out of 68 (85.3%) were taking or had taken drugs to control pain in the previous three months. The patients were asked not to take any analgesics or nonsteroidal anti-inflammatory drugs (NSAIDs) throughout the study period. All patients gave written consent. The study was approved by the Ethics Committee of the hospital where the study was carried out.
as §1
Primary outcome of the study was the assessment and comparison of changes in pain intensity between the sodium neridronate group and the placebo group along the study. Pain in the affected knee was measured by VAS (0-100) at day 1 (T0), at the day of the last infusion (day 10; T1) and 50 days later (T2). As secondary endpoints, the following clinical assessments were performed: the Western Ontario and MacMaster Universities Osteoarthritis Index (WOMAC) pain questionnaire; the McGill Pain Questionnaire and the 36-Item Short Form Health Survey (SF-36) questionnaire to assess the patient's functional status. All these instruments were administered at T0 and T2. As additional endpoint, changes in WORMS score before the treatment and at T2 have been measured.

The subject of series [4] is subchondral BMLs in patients with painful knee OA. The series can be described thus: Knee MRI, WORMS score for bone marrow edema. The format is in vivo. Conditions: mean ± SD. How it is done: as §1
High resolution, three-dimensional MRI of the target knee was obtained for each patient before the start of the treatment (1-7 days) and at the end of the study (day 58-69). All MR images were evaluated by a skilled musculoskeletal radiologist who was blinded to the patient's treatment. All MR examinations were performed with a 1.5 T scanner (Magnetom Espree, Siemens) using a dedicated knee coil. Imaging was performed on sagittal, coronal and transverse planes, with a field of view (FOV) of 18 cm and a matrix of acquisition of 256×256. The MR protocol included: spin echo (SE) T1-weighted sequences (repetition time TR 580 ms, echo time TE 12 ms, number of signal averages 2, thickness 3.0 mm, intersection gap 0.5 mm) on sagittal, coronal and transverse planes; SE T2-weighted sequences (TR 4.000 ms, TE 30/100 ms, one signal acquired, thickness 3.0 mm, intersection gap 0.5 mm) on sagittal and transverse planes; PD-weighted sequence with fat/suppression (TR 2800 ms, TE 40 ms, one signal acquired, thickness 3.0 mm, intersection gap 0.5 mm) on coronal plane. Subchondral BMLs were identified as areas of increase signal intensity on fat-suppressed T2-weighted images. Scores were assigned using the Whole-Organ MRI score for knee OA (WORMS) for bone marrow edema. […] For each subregion, the extent of the lesion was assessed following the WORMS scale: 0=absence of edema; 1=less than 25%; 2=25-50%; 3=>50%.
(§4) Primary outcome of the study was the assessment and comparison of changes in pain intensity between the sodium neridronate group and the placebo group along the study. Pain in the affected knee was measured by VAS (0-100) at day 1 (T0), at the day of the last infusion (day 10; T1) and 50 days later (T2). […] As additional endpoint, changes in WORMS score before the treatment and at T2 have been measured.

Series [5] deals with patients with acute painful knee osteoarthritis (OA). The series can be described thus: Adverse events during the infusion course. It is filed as in vivo. The conditions noted are these: one patient, after the first infusion. Here is the method:
as §1
Fifty-six patients completed the study. […] Eight patients in the placebo group were excluded for the resumption of analgesic or NSAIDs treatment during the study (7 patients) and one patient refused to return to be evaluated 50 days after the treatment. […]

The test system is the same in series [6]. The series can be described thus: McGill Pain Questionnaire. It is filed as in vivo. The conditions noted are these: mean ± SD.
Excerpt: as §2
(§5) From March 2013 to January 2014, 96 patients older than 50 years and with a recent onset of knee pain were screened. These patients came from the orthopedic and rheumatologic outpatients services and the emergency department of a tertiary care center devoted to bone and joint diseases. […]
as §4

Series [7] has the same test system. Nature of the series: SF-36 questionnaire (functional status). Conditions: mean ± SD. It is filed as in vivo.
Excerpt: as §2, §3, §1, §4

For series [8] the test system is unchanged. Nature of the series: WOMAC pain questionnaire. The format is in vivo. The conditions noted are these: mean ± SD.
Excerpt: as §2, §5, §4

Setting [9] is: 50 days after the end of treatment (T2), N = 31.

As to `O=P(O)(O)C(O)(Cc1cccnc1)P(=O)(O)O` [risedronate], the “efficacy of treatment in pain symptoms versus placebo” value in series [1] was “it was not possible to find any difference”.
Turning to `NCCCCCC(O)(P(=O)(O)O)P(=O)(O)O` [sodium neridronate], the “patients who had resumed symptomatic therapy with analgesic drugs or NSAIDs” value in series [2] is reported as 12.9%. For the same molecule, the VAS score in series [3] (50 days after the end of treatment (T2), 100 mg i.v. x4, N = 31) is 9.4±10.8; in series [3] (50 days after the end of treatment (T2), 100 mg i.v. x4, N = 31, listed as Neridronate) it was 9.4; in series [3] (baseline (day 1, T0), before treatment, N = 34), 59.0±14.7; in series [3] (baseline (day 1, T0), before treatment, N = 34, listed as Neridronate), 59.0 ± 14.7; in series [3] (day of the last infusion (day 10, T1), 100 mg i.v. on days 1, 4, 7, 10) it was 30.4±15.6. Besides, the WORMS score in series [4] (T2, MRI at the end of the study, N = 31) is reported as 3.7±4.2; in series [4] (T2, MRI at the end of the study, N = 31, listed as Neridronate), 3.7; in series [4] (baseline, MRI before the start of treatment, N = 34), 6.3±3.0; in series [4] (baseline, MRI before the start of treatment, N = 34, listed as Neridronate) it was 6.3 ± 3.0. Further, the “adverse event leading to withdrawal of consent” value in series [5] is given as “acute phase reaction”. The McGill was found to be 3.7 in series [6] (setting [9]) and 14.3 ± 7.6 in series [6] (baseline (T0), N = 34). For the same molecule, the SF-36 mental component was 62.5 in series [7] (setting [9]) and 56.1 ± 12.4 in series [7] (baseline (T0), N = 34). For the same molecule, the SF-36 physical component in series [7] (setting [9]) is given as 51.1; in series [7] (baseline (T0), N = 34) it was 36.6 ± 10.2. The WOMAC in series [8] (setting [9]) worked out at 58; in series [8] (baseline (T0), N = 34), 232 ± 79.

The record behind these values is patent US20230233585A1, “USE OF […] OR OF ITS SALT FOR THE TREATMENT OF OSTEOARTHROSIS” (ABIOGEN PHARMA S.P.A., priority 2014, published 2023).
